What was measured:
aRMS cells [1] = assay: cell growth of aRMS cells in vitro; format: cell-based
Source text: (§1) Recently, we have established a gene signature characteristic for the Pediatric sarcoma alveolar rhabdomyosarcoma (aRMS), which expresses the chimaeric fusion protein PAX3/FKHR due to a chromosomal translocation event t(2; 13). Based on this signature, a number of potential therapeutic target molecules have been selected for further study, such as FGFR2. […] Furthermore, tumor growth could also be inhibited in vivo using a mouse xenograft tumor model.

aRMS cells [2] = assay: apoptosis / caspase 3 activity in aRMS cells; format: cell-based; conditions: aRMS cells in vitro
Source text: as §1

aRMS = assay: mouse xenograft tumor model; conditions: in vivo
Source text: as §1

PAX3/FKHR = biological target: T1, PAX3/FKHR (Homo sapiens, UniProt P23760+Q12778); assay: expression of PAX3/FKHR specific target gene CB1; format: cell-based; conditions: upon treatment
T1 construct: FKHR (FOXO1, Q12778) C-terminal portion as fusion partner; endogenous in cells
T1 sequence (P23760+Q12778 fused): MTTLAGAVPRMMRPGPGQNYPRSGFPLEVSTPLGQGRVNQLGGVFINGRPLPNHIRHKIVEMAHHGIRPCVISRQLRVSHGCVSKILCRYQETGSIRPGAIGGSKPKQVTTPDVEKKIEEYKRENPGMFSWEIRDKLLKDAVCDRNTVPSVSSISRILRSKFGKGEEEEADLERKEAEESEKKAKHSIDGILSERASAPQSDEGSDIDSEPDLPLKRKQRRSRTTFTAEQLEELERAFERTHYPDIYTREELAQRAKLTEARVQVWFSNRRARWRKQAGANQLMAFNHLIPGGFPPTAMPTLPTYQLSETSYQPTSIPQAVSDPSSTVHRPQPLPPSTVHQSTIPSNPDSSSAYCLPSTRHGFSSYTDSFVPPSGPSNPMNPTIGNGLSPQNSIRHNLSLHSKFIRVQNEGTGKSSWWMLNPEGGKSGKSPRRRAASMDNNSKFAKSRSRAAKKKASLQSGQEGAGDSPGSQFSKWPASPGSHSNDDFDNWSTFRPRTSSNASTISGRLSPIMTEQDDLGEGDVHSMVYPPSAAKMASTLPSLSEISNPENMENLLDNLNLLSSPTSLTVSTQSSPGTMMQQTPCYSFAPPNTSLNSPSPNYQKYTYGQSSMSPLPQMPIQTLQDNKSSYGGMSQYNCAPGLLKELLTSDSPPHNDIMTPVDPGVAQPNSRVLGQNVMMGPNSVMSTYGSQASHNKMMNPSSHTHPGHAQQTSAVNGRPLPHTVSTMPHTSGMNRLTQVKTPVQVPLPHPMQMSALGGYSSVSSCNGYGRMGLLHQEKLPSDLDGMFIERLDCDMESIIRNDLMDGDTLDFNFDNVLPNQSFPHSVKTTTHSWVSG

## CO[C@@H]1[C@H](N(C)C(=O)c2ccccc2)C[C@H]2O[C@]1(C)n1c3ccccc3c3c4c(c5c6ccccc6n2c5c31)C(=O)NC4 [PKC412, N-[(9S,10R,11R,13R)-2,3,10,11,12,13-hexahydro-10-methoxy-9-methyl-1-oxo-9,13-epoxy-1H,9H-diindolo[1,2,3-gh:3′,2′,1′-Im]pyrrolo[3,4-j][1,7]benzodiazonin-11-yl]-N-methylbenzamide]
aRMS cells [1]
  cell growth of aRMS cells: efficiently inhibit cell growth
aRMS cells [2]
  apoptosis: induce apoptosis
  caspase 3 activity: enhanced caspase 3 activity
aRMS
  tumor growth: inhibited
PAX3/FKHR
  CB1 expression: completely abolished

— patent publication US7973032B2, “Staurosporine derivatives for use in alveolar rhabdomyosarcoma” (University of Zurich, priority 2005, dated 2011)
